Source: the kinase profiling compilation of Christmann-Franck et al. (2016)

Legend:
Assay in all cases: KINOMEscan competition binding
Details in all cases: compound 10.0 µM
[1] = target: AKT1 (human) (UniProt P31749)
[2] = target: BRSK1 (human) (UniProt Q8TDC3)
[3] = target: BRSK2 (human) (UniProt Q8IWQ3)
[4] = target: CAMK2D (human) (UniProt Q13557)
[5] = target: CAMK2G (human) (UniProt Q13555)
[6] = target: CDK13 (human) (UniProt Q14004)
[7] = target: CSNK1E (human) (UniProt P49674)
[8] = target: EPHA5 (human) (UniProt P54756)
[9] = target: EPHA7 (human) (UniProt Q15375)
[10] = target: EPHB4 (human) (UniProt P54760)
[11] = target: ERN1 (human) (UniProt O75460)
ERN1 (human), sequence (O75460 whole entry, looked up): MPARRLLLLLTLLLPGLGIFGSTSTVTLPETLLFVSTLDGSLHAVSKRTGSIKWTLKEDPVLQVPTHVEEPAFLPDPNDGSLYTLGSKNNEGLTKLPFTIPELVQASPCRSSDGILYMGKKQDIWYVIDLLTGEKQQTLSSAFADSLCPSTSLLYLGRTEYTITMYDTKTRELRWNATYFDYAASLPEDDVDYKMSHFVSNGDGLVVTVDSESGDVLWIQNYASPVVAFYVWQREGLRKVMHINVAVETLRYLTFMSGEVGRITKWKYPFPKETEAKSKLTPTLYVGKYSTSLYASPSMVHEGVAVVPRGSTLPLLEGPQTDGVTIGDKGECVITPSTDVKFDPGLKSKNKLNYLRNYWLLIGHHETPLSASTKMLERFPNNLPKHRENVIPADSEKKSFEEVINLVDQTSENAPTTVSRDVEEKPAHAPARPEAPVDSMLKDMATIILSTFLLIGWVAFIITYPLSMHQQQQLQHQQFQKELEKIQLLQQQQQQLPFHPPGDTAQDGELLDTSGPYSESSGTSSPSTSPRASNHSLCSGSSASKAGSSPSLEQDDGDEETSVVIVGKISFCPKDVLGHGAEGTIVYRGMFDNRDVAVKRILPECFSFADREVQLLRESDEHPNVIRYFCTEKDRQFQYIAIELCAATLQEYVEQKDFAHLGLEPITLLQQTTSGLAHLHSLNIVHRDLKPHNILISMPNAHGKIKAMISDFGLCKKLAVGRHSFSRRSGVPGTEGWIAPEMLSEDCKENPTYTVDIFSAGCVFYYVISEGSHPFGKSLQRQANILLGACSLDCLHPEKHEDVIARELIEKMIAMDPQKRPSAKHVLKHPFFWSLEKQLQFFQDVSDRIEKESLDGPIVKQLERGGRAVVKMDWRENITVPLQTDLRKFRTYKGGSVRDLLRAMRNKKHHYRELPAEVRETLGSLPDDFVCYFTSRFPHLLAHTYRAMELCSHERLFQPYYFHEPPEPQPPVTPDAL

[12] = system: FGFR3 (human), P22607 [G697C]
[13] = target: HIPK1 (human) (UniProt Q86Z02)
[14] = target: HIPK2 (human) (UniProt Q9H2X6)
[15] = target: IRAK4 (human) (UniProt Q9NWZ3)
[16] = target: LATS2 (human) (UniProt Q9NRM7)
[17] = target: MAP3K1 (human) (UniProt Q13233)
[18] = target: MAP4K3 (human) (UniProt Q8IVH8)
[19] = target: MAPK1 (human) (UniProt P28482)
[20] = target: MAPK9 (human) (UniProt P45984)
[21] = target: MLTK (human) (UniProt Q9NYL2)
[22] = target: MST1R (human) (UniProt Q04912)
[23] = target: NEK11 (human) (UniProt Q8NG66)
[24] = target: NTRK3 (human) (UniProt Q16288)
[25] = target: PAK4 (human) (UniProt O96013)
[26] = target: PDGFRB (human) (UniProt P09619)
[27] = target: PIK3CB (human) (UniProt P42338)
PIK3CB (human), sequence (P42338 whole entry, looked up): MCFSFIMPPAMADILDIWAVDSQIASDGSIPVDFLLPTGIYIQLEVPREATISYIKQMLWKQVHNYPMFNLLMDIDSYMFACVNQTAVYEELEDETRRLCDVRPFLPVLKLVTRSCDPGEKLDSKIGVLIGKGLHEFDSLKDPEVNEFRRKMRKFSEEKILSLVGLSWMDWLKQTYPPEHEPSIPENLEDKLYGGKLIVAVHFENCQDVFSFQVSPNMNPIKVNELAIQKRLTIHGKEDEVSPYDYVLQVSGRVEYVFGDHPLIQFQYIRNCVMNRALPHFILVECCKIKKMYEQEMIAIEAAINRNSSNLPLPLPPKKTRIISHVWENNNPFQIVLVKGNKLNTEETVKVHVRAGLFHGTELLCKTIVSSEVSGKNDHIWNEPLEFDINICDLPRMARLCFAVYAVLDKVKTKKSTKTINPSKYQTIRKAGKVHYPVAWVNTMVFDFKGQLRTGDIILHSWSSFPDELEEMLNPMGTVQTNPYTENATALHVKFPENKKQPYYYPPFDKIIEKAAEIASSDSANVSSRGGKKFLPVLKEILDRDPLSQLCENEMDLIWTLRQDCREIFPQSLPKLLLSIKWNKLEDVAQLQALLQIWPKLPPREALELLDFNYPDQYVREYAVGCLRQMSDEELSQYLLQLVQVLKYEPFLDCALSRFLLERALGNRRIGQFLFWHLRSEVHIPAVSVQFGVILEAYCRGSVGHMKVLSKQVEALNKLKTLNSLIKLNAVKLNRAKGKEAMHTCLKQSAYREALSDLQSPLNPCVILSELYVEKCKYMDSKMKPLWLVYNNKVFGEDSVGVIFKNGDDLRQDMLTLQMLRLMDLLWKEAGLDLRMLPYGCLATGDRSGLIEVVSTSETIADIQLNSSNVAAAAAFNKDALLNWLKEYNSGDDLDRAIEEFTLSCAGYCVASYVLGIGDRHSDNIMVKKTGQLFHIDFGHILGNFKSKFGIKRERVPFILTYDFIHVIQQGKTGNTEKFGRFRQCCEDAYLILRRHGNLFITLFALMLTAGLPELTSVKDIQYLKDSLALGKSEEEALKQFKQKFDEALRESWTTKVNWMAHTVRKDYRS

[28] = target: PLK3 (human) (UniProt Q9H4B4)
[29] = target: PRKAA2 (human) (UniProt P54646)
PRKAA2 (human), sequence (P54646 whole entry, looked up): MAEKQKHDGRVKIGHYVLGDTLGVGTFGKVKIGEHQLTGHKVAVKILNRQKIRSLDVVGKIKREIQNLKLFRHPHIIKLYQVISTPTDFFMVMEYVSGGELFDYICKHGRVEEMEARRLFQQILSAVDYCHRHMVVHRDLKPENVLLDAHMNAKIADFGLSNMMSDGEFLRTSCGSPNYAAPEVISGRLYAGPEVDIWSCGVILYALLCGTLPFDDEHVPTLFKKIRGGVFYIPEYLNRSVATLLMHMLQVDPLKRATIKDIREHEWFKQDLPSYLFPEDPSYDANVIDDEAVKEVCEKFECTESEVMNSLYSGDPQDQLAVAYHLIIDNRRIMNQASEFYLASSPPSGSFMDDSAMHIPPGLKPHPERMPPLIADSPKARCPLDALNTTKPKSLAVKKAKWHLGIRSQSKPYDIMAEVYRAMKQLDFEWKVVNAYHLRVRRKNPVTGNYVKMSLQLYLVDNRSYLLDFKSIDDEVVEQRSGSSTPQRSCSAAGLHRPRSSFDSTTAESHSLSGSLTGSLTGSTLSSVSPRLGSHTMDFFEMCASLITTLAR

[30] = target: PRKCD (human) (UniProt Q05655)
[31] = target: PRPF4B (human) (UniProt Q13523)
[32] = target: RPS6KA1 KD1 (human) (UniProt Q15418)
[33] = target: RPS6KA2 KD2 (human) (UniProt Q15349)
RPS6KA2 KD2 (human), sequence (Q15349 whole entry, looked up): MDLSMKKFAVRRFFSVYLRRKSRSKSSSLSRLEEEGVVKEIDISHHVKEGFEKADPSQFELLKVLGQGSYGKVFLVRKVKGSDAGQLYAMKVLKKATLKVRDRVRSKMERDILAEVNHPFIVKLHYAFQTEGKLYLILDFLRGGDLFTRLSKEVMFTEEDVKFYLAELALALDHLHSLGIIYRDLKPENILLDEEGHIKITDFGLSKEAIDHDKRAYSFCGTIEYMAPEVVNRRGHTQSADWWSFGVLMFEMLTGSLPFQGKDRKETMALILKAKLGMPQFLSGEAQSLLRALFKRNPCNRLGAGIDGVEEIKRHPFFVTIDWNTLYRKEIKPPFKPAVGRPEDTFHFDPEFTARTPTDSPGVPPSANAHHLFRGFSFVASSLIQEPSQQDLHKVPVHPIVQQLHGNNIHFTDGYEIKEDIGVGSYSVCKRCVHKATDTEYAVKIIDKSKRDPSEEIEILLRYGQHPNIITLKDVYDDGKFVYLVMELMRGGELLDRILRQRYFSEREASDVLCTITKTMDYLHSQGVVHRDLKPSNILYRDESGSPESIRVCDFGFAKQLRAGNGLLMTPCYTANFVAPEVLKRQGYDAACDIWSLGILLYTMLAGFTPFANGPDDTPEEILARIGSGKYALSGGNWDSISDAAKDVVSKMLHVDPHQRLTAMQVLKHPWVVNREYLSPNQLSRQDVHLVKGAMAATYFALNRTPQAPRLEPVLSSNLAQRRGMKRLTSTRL

[34] = target: RPS6KA5 KD1 (human) (UniProt O75582)
[35] = target: RPS6KA6 KD1 (human) (UniProt Q9UK32)
RPS6KA6 KD1 (human), sequence (Q9UK32 whole entry, looked up): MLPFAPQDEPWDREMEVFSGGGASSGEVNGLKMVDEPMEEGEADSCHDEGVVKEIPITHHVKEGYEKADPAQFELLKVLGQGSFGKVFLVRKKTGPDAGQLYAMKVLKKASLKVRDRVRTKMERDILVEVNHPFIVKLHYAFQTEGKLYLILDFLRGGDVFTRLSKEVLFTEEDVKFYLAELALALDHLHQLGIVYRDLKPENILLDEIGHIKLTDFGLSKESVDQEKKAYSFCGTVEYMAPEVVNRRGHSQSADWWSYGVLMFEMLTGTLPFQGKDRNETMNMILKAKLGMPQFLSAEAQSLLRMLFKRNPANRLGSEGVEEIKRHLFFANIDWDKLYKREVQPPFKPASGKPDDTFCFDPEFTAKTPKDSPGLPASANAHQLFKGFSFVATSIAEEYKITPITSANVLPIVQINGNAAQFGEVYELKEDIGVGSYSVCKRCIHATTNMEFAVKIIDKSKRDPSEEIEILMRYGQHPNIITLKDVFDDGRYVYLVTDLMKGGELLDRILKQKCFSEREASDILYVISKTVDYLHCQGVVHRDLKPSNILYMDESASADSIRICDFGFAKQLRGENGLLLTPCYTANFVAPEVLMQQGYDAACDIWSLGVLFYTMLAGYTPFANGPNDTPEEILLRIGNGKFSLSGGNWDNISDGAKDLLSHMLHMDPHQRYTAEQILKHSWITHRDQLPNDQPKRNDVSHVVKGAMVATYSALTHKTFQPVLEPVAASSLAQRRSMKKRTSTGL

[36] = target: RPS6KB1 (human) (UniProt P23443)
[37] = target: SLK (human) (UniProt Q9H2G2)
[38] = target: SRPK1 (human) (UniProt Q96SB4)
[39] = target: STK3 (human) (UniProt Q13188)
[40] = target: STK38L (human) (UniProt Q9Y2H1)
STK38L (human), sequence (Q9Y2H1 whole entry, looked up): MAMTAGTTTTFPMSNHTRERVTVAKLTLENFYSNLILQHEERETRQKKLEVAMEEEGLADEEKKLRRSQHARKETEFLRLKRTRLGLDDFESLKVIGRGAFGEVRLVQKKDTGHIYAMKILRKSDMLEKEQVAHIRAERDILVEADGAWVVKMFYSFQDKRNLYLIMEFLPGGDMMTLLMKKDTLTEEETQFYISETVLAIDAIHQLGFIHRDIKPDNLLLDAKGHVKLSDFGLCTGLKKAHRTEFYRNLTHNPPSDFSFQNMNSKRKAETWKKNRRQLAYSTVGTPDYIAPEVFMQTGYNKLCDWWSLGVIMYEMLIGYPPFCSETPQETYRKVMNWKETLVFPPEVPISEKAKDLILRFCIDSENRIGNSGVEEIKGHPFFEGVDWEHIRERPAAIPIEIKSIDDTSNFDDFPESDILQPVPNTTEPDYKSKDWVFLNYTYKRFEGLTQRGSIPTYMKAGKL

[41] = target: TIE1 (human) (UniProt P35590)

CAMK2D (human), sequence (Q13557 whole entry, looked up): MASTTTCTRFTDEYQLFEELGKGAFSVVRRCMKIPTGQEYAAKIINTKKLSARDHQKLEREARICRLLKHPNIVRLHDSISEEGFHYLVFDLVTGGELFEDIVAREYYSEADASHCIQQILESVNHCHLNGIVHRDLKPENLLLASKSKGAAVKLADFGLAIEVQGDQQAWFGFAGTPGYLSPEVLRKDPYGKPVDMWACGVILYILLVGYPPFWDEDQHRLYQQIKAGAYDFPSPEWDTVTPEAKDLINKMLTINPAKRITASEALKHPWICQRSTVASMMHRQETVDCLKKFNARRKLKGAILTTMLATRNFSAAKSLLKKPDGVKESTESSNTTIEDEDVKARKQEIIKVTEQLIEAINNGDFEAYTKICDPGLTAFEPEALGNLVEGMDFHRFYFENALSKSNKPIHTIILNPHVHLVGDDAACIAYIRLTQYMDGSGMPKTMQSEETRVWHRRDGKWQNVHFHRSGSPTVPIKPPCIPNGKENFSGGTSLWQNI

COc1ccc(-c2ccc3c(N4CCOCC4)nc(N4C[C@@H](C)O[C@@H](C)C4)nc3n2)cc1CO
kinase still bound, per cent of control [1]: 88%
kinase still bound, per cent of control [2]: 100%
kinase still bound, per cent of control [3]: 98%
kinase still bound, per cent of control [4]: 100%
kinase still bound, per cent of control [5]: 87%
per cent of control [6]: 100%
kinase still bound, per cent of control [7]: 87%
kinase still bound, per cent of control [8]: 94%
kinase still bound, per cent of control [9]: 86%
kinase still bound, per cent of control [10]: 100%
kinase still bound, per cent of control [11]: 89%
kinase still bound, per cent of control [12]: 77%
kinase still bound, per cent of control [13]: 97%
kinase still bound, per cent of control [14]: 58%
kinase still bound, per cent of control [15]: 99%
kinase still bound, per cent of control [16]: 89%
kinase still bound, per cent of control [17]: 100%
kinase still bound, per cent of control [18]: 85%
kinase still bound, per cent of control [19]: 100%
kinase still bound, per cent of control [20]: 76%
kinase still bound, per cent of control [21]: 100%
kinase still bound, per cent of control [22]: 99%
kinase still bound, per cent of control [23]: 72%
kinase still bound, per cent of control [24]: 77%
kinase still bound, per cent of control [25]: 86%
kinase still bound, per cent of control [26]: 95%
kinase still bound, per cent of control [27]: 30%
kinase still bound, per cent of control [28]: 92%
kinase still bound, per cent of control [29]: 100%
kinase still bound, per cent of control [30]: 100%
kinase still bound, per cent of control [31]: 100%
kinase still bound, per cent of control [32]: 70%
kinase still bound, per cent of control [33]: 94%
kinase still bound, per cent of control [34]: 100%
kinase still bound, per cent of control [35]: 76%
kinase still bound, per cent of control [36]: 100%
kinase still bound, per cent of control [37]: 98%
kinase still bound, per cent of control [38]: 100%
kinase still bound, per cent of control [39]: 85%
kinase still bound, per cent of control [40]: 95%
kinase still bound, per cent of control [41]: 100%
